According to PMC6270635, “Phenolic Esters of O-Desmethylvenlafaxine with Improved Oral Bioavailability and Brain Uptake” (Molecules, 2013):

Conditions: not given

| Structure (SMILES) | melting point [°C] |
| --- | --- |
| CN(C)CC(c1ccc(OC(=O)C(C)(C)C)cc1)C1(O)CCCCC1 (stereo not shown) [1a, 4-(2-(Dimethylamino)-1-(1-hydroxycyclohexyl)ethyl)phenyl pivalate] | 131 to 133 |
| CN(C)CC(c1ccc(OC(=O)C2CCCCC2)cc1)C1(O)CCCCC1 (stereo not shown) [1b, 4-(2-(Dimethylamino)-1-(1-hydroxycyclohexyl)ethyl)phenyl cyclohexanecarboxylate] | 122 to 124 |
| CC1CCC(C(=O)Oc2ccc(C(CN(C)C)C3(O)CCCCC3)cc2)CC1 (stereo not shown) [1c, 4-(2-(Dimethylamino)-1-(1-hydroxycyclohexyl)ethyl)phenyl 4-methylcyclohexanecarboxylate] | 157 to 159 |
| CC(C)C1CCC(C(=O)Oc2ccc(C(CN(C)C)C3(O)CCCCC3)cc2)CC1 (stereo not shown) [1d, 4-(2-(Dimethylamino)-1-(1-hydroxycyclohexyl)ethyl)phenyl 4-isopropylcyclohexanecarboxylate] | 149 to 152 |
| CN(C)CC(c1ccc(OC(=O)C2CCCCCC2)cc1)C1(O)CCCCC1 (stereo not shown) [1e, 4-(2-(Dimethylamino)-1-(1-hydroxycyclohexyl)ethyl)phenyl cycloheptanecarboxylate] | 110 to 112 |
| CN(C)CC(c1ccc(OC(=O)c2ccoc2)cc1)C1(O)CCCCC1 (stereo not shown) [1g, 4-(2-(Dimethylamino)-1-(1-hydroxycyclohexyl)ethyl)phenyl furan-3-carboxylate] | 159 to 162 |
| CN(C)CC(c1ccc(OC(=O)c2ccsc2)cc1)C1(O)CCCCC1 (stereo not shown) [1h, 4-(2-(Dimethylamino)-1-(1-hydroxycyclohexyl)ethyl)phenyl thiophene-3-carboxylate] | 168 to 172 |
| CN(C)CC(c1ccc(OC(=O)c2cccnc2)cc1)C1(O)CCCCC1 (stereo not shown) [1i, 4-(2-(Dimethylamino)-1-(1-hydroxycyclohexyl)ethyl)phenyl nicotinate] | 180 to 182 |
| COc1ccc(C(=O)Oc2ccc(C(CN(C)C)C3(O)CCCCC3)cc2)cc1 (stereo not shown) [1k, 4-(2-(Dimethylamino)-1-(1-hydroxycyclohexyl)ethyl)phenyl 4-methoxybenzoate] | 133 to 137 |
| CN(C)CC(c1ccc(OC(=O)CCc2ccccc2)cc1)C1(O)CCCCC1 (stereo not shown) [1l, 4-(2-(Dimethylamino)-1-(1-hydroxycyclohexyl)ethyl)phenyl 3-phenylpropanoate] | 124 to 127 |
| CN(C)CC(c1ccc(OC(=O)C=Cc2ccccc2)cc1)C1(O)CCCCC1 (stereo not shown) [1m, 4-(2-(Dimethylamino)-1-(1-hydroxycyclohexyl)ethyl)phenyl cinnamate] | 118 to 122 |
| CN(C)CC(c1ccc(OC(=O)c2ccc3c(c2)OCO3)cc1)C1(O)CCCCC1 (stereo not shown) [1n, 4-(2-(Dimethylamino)-1-(1-hydroxycyclohexyl)ethyl)phenyl benzo[d][1,3]dioxole-5-carboxylate] | 154 to 157 |
| CN(C)CC(c1ccc(OC(=O)c2ccc3c(c2)OCCO3)cc1)C1(O)CCCCC1 (stereo not shown) [1o, 4-(2-(Dimethylamino)-1-(1-hydroxycyclohexyl)ethyl)phenyl 2,3-dihydrobenzo[b][1,4]dioxine-6-carboxylate] | 159 to 162 |

Conditions: cited from earlier work

| Structure (SMILES) | bioavailability in humans |
| --- | --- |
| CN(C)CC(c1ccc(O)cc1)C1(O)CCCCC1 (stereo not shown) [ODV, O-Desmethylvenlafaxine] | ca. 80% |

Parameters: method as in PMID 23517291, PMID 23334675
Conditions: ODV as the succinate salt; cited from earlier work

| Structure (SMILES) | minimum effective dose [mg/day] |
| --- | --- |
| CN(C)CC(c1ccc(O)cc1)C1(O)CCCCC1 (stereo not shown) [ODV, O-Desmethylvenlafaxine] | 50 |

Parameters: method as in PMID 21925241
Conditions: rat, oral administration; cited from earlier work

| Structure (SMILES) | relative bioavailability compared with ODV |
| --- | --- |
| COc1ccc(C(=O)Oc2ccc(C(CN(C)C)C3(O)CCCCC3)cc2)cc1 (stereo not shown) [1k, 4-(2-(Dimethylamino)-1-(1-hydroxycyclohexyl)ethyl)phenyl 4-methoxybenzoate] | higher relative bioavailability than ODV |
